# Measured values: US9289444B2, “Composition for promoting hematogenesis containing quercetin 3-O-β-(2″-galloyl)-rhamnopyranoside as active ingredient” (Chungbuk National University Industry Academic Cooperation …, priority 2011, dated 2016)
# Key:
# [1] = test system: bone marrow stromal cells; experiment: Real-time RT-PCR of hematopoietic cytokine mRNA; type: cell-based, mouse
# Source text: Bone marrow mononuclear cells (BMNCs) were isolated from femurs and tibias of 8 to 12-week-old male C57BL/6 mice by a previously described protocol [Kroeger K, Collins M, Ugozzoli (2009) The preparation of primary hematopoietic cell cultures from murine bone marrow for electroporation. J. Vis. Exp. 23: pii:1026. doi:10.3791/1026] and were separated from dead cells and red blood cells (RBCs) by Histopaque ([…]) (Sigma-Aldrich Chemical, St. Louis, Mo., USA) density gradient centrifugation. Thereafter, the cells were cultured in Iscove's modified Dulbecco's media (IMDM) with 15% heat inactivated fetal bovine serum (FBS), 1% bovine serum albumin (BSA), 100 units/ml penicillin and 100 μg/ml streptomycin at 37° C. in 5% CO2 humidified air. The separated blood was cultured as described previously [Oswald J, et al. (2004). Mesenchymal stem cells can be differentiated into endothelial cells in vitro. Stem Cells, 22: 377-384.] to obtain bone marrow stromal cells in α-minimum essential medium (MEM) with 20% heat inactivated FBS, 100 units/ml penicillin and 100 μg/ml streptomycin at 37° C. in 5% CO2 humidified air.
# To confirm whether QGR regulates the expression of hematopoietic cytokines in bone marrow stromal cells, real-time RT-PCR was performed. Bone marrow stromal cells (3×10^5 cells/plate) were incubated with either mouse rIL-3 (100 units/ml) plus rSCF (5 units/ml) plus rEpo (3 units/ml) or QGR (50, 100 or 200 μM/ml) in 60 mm-diameter cell culture plates. The cells were harvested after 4 hr of incubation and washed with PBS and total RNA were extracted using RNA extraction kit (Applied Biosystems, Carlsbad, Calif., USA). First strand synthesis of cDNA was carried out with 1 μg of total RNA using cDNA synthesis kit (Applied Biosystems, Foster City, Calif., USA). Real-time PCR using TaqMan probe PCR master mix kit (Applied Biosystems) was performed according to the manufacturer's instruction using a model 7500 Real-Time PCR System (Applied Biosystems). GAPDH mRNA was utilized as an internal standard to normalize target transcript expression. The relative ratios of SCF, GM-CSF, or Epo mRNA to GAPDH mRNA which can be used to quantify precisely the levels of each mRNA expression, were calculated with the standard curves.
# BMNCs [2] = experiment: Semisolid colonogenic assay (BFU-E colonies); type: cell-based, mouse
# Procedure: To investigate the effects of QGR on erythroid lineage development in mouse HSCs and EPCs, the colonogenic assay was performed according to the manufacturer's instruction in triplicate by plating 2×10^5 cells/plate using methylcellulose stock solution in IMDM (R&D Systems) with cocktail (rIL-3 100 units/ml plus rSCF 5 units/ml plus rEpo 3 units/ml) or/and QGR (0, 100 or 200 μM/ml) in 35 mm-diameter cell culture plates. These plates were put in 100 mm-diameter plates with 3 ml of autoclaved distilled water and incubated at 37° C. in 5% CO2 humidity air. 14 days later, BFU-E colonies were counted under an Axiovert 40 CFL inverted microscope (Carl Zeiss, Oberkochen, Germany).
# BMNCs [3] = experiment: Flow cytometric analysis for cells positive for TER-119; type: cell-based, mouse; conditions: 7 days, 100 or 200 μM/ml, dose-dependently, vs negative control
# Procedure: To confirm the differentiation of mouse HSCs or EPCs into erythroid cells by QGR treatment, flow cytometric analysis for mouse anti-TER-119 was performed. BMNCs were cultured with either rEpo (3 units/ml) or QGR (100 or 200 μM/ml) in 6-well plates. Cells were harvested at day 7, washed with PBS, re-suspended at concentration of 1×10^5 cells/ml in 100 μl of PBS containing 0.02% sodium azide and 2% FBS, incubated with 10 μl of mouse anti-CD16/CD32 Ab (eBioScience, San Diego, Calif., USA) as Fc receptor blocker for 3 min at room temperature and incubated with PE-conjugated anti-TER-119 Ab for 20 min at 4° C. Flow cytometric analysis was performed using FACS Calibur (Becton Dickinson, Oxnard, Calif., USA) and the percentage of positively stained cells was determined.
# [4] = test system: bone marrow failure mouse induced by busulphan (BU); experiment: Peripheral blood analysis in bone marrow failure model induced by busulphan (BU); type: in vivo, Balb/c mice
# Source text: 5-week-old female Balb/c mice were purchased from Orient Bio Inc. (Seongnam-si, Gyeonggi-do, Korea). All protocols of animal experiments were approved by Institutional Animal Care and Use Committee of Laboratory Animal Research Center, Chungbuk National University. The mice were fed by Teklad Global 18% protein rodent diet (Harlan, Iowa, USA) and had free access to drinking water. The mice were housed and bred under specific pathogen-free conditions, and were went through environmental acclimatization for one week before used in the animal experiments and were separated into three groups (n=70/group).
# Bone marrow failure model induced by administering busulphan (BU) was designed according to the procedures previously described by Molyneux et al (Cell Biol Toxicol 27, 13-40, 2011) and the scheme is shown in FIG. 8. BU (Sigma chemicals, Poole, Dorset, UK) was dissolved in acetone to a final concentration of 18.8 mg/ml, diluted five-fold with distilled water, and was intraperitoneally administered three times for 5 days with the dose of 0.2 ml BU solution per mouse. Equal amount of five-fold diluted acetone solution without BU was administered to vehicle control group. QGR was dissolved in dimethylsulfoxide and diluted with distilled water to a final concentration of 1.25%. Mice were orally administered every two days with QGR (0.25 mg/mouse) for 63 days. Seven or eight mice were sacrificed on days of 1, 5, 10, 16, 25, 40, 49, and 63 after BU administration and were investigated to confirm the effect of QGR to recover bone marrow failure.
# In order to evaluate the activity of QGR to recover anemia animal model induced by BU administration, peripheral blood was collected during an autopsy and were investigated. The collected peripheral blood was stored in the bottle containing EDTA to prevent a blood clotting, and the numbers of erythrocytes, leukocytes, and platelets, hematocrit (HCT) level, mean corpuscular volume (MCV), and mean corpuscular hemoglobin (MCH) were measured.
# [5] = 100 and 200 μM, vs rIL-3+rSCF+rEpo
# [6] = QGR 0.25 mg/mouse orally after BU
compound,measurement,setting,value
"CC1OC(Oc2c(-c3ccc(O)c(O)c3)oc3cc(O)cc(O)c3c2=O)C(OC(=O)c2cc(O)c(O)c(O)c2)C(O)C1O (stereo not drawn) [QGR, quercetin 3-O-β-(2″-galloyl)-rhamnopyranoside]","mRNA expression levels of SCF, GM-CSF and Epo","[1]; 50, 100 or 200 μM/ml, 4 hrs, dose-dependent",increased
same,Epo mRNA compared to the positive control,[1]; [5],significantly increased
same,GM-CSF mRNA compared to the positive control,[1]; [5],significantly increased
same,SCF mRNA compared to the positive control,"[1]; all concentrations, vs rIL-3+rSCF+rEpo",significantly increased
same,formation and growth of BFU-E colonies compared with the positive control,"BMNCs [2]; cocktail (rIL-3, rSCF and rEpo) plus 200 μM QGR, p<0.01",1.43 fold
same,number of BFU-E colonies compared with negative control,"BMNCs [2]; day 14, 100 or 200 μM/ml for QGR, dose-dependent",significantly enhanced
same,number of BFU-E colony compared with positive control,"BMNCs [2]; day 14, QGR alone vs rIL-3+rSCF+rEpo",smaller than that of positive control
same,ratio of TER-119+ cells (flow cytometric analysis),BMNCs [3],significantly increased
same,mean corpuscular volume (MCV),[4]; BU group vs BU+QGR group,BU administration group are significantly lower than those of BU+QGR administration group
same,leukocyte numbers vs normal control group,[4]; [6],slightly lower
same,"recovery effect of leukocyte level, onset",[4]; [6],≥ 10 days
same,"recovery effect on erythrocyte level, onset",[4]; [6],≥ 5 days
same,"recovery of reduced platelet numbers, onset",[4]; [6],≥ 16 days
same,erythrocyte level vs normal control group,[4]; QGR 0.25 mg/mouse orally every two days after BU,slightly lower
same,erythrocyte level vs positive control group (BU + vehicle),"[4]; QGR 0.25 mg/mouse orally every two days, days 5, 10, 16, 25, 49, 63",significantly higher
same,leukocyte numbers vs positive control group (BU + vehicle),[4]; day 10 up to day 63,higher level
same,hemoglobin (HGB) level,[4]; pattern similar to erythrocytes,recovered the anemia
same,platelet numbers,"[4]; vs positive control group (BU + vehicle), significant differences continuously",steeply recovered
